For 13 compounds, MIC results are on record in US20260274892A1, “MACROCYCLIC BROAD SPECTRUM ANTIBIOTICS” (RQx Pharmaceuticals, Inc., priority 2017, published 2026).

Assay [1] deals with Methicillin Resistant Staphylococcus aureus strain USA 200. As to the kind of experiment: Minimum inhibitory concentration (MIC), CLSI broth micro-dilution, S. aureus. The class given is cell-based. The note with it: Staphylococcus aureus, MRSA / USA200; Table 6; MRSA USA 200; cation adjusted Mueller Hinton Broth + 0.002% Tween-80; 35° C., 22 hours. The method in brief: (§1)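 Colonies grown 20 h at 35° C on Trypticase Soy agar (MRSA) or Luria agar (E. coli) were suspended in cation-adjusted Mueller Hinton broth with 0.002% Tween-80. Suspensions were added at OD600 0.0005 to 10-point twofold compound dilutions, then incubated 22 h at 35° C.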
In general terms: In broth dilution the organism is exposed to a series of concentrations in liquid medium.

Assay [2] relates to Escherichia coli ATCC 25922. As to the kind of experiment: Minimum inhibitory concentration (MIC), CLSI broth micro-dilution, E. coli. It is filed as cell-based. To be noted: Escherichia coli, ATCC25922, 22 h, Table 6, cation adjusted Mueller Hinton Broth + 0.002% Tween-80, 35° C. The method in brief: as §1

With `Cc1nc(-c2ccc3c(c2)CCOC3(C)C)nc(C)c1C(=O)N[C@@H](CCN)C(=O)N(C)[C@@H]1C(=O)N[C@@H](C)C(=O)N[C@H](C(=O)NCC#N)Cc2ccc(OCCN)c(c2)-c2cc1ccc2OCCN` (racemic) [Compound 290, rac-(8S,11S,14S)-3,18-bis(2-aminoethoxy)-N-(cyanomethyl)-11-methyl-14-[methyl-[rac-(2S)-4-amino-2-[[2-(1,1-dimethylisochroman-6-yl)-4,6-dimethyl-pyrimidine-5-carbonyl]amino]butanoyl]amino]-10,13-dioxo-9,12-diazatricyclo[13.3.1.12,6]icosa-1(18),2(20),3,5,15(19),16-hexaene-8-carboxamide], the MIC was determined as 0.19 µM in assay [1] and 0.75 µM in assay [2].
Regarding `CCCC(F)(F)c1ccc(-c2nc(C)c(C(=O)N[C@@H](CCN)C(=O)N(C)[C@@H]3C(=O)N[C@@H](C)C(=O)N[C@H](C(=O)NCC#N)Cc4ccc(OCCN)c(c4)-c4cc3ccc4OCCN)c(C)n2)cc1` (racemic) [Compound 294, rac-(8S,11S,14S)-3,18-bis(2-aminoethoxy)-N-(cyanomethyl)-11-methyl-14-[methyl-[rac-(2S)-4-amino-2-[[2-[4-(1,1-difluorobutyl)phenyl]-4,6-dimethyl-pyrimidine-5-carbonyl]amino]butanoyl]amino]-10,13-dioxo-9,12-diazatricyclo[13.3.1.12,6]icosa-1(18),2(20),3,5,15(19),16-hexaene-8-carboxamide], the MIC in assay [1] is 0.031 µM; in assay [2], 0.19 µM.
On the same counts, the results for `Cc1nc(C2=CCC(C(C)(C)C)CC2)nc(C)c1C(=O)N[C@@H](CCN)C(=O)N(C)[C@@H]1C(=O)N[C@@H](C)C(=O)N[C@H](C(=O)NCC#N)Cc2ccc(OCCN)c(c2)-c2cc1ccc2OCCN` (mixture of isomers) [Compound 295, rac-(8S,11S,14S)-3,18-bis(2-aminoethoxy)-N-(cyanomethyl)-11-methyl-14-[methyl-[rac-(2S)-4-amino-2-[[2-(4-tert-butylcyclohexen-1-yl)-4,6-dimethyl-pyrimidine-5-carbonyl]amino]butanoyl]amino]-10,13-dioxo-9,12-diazatricyclo[13.3.1.12,6]icosa-1(18),2(20),3,5,15(19),16-hexaene-8-carboxamide] are 0.0078 µM and 0.063 µM.
Turning to `Cc1nc(-c2ccc(C(C)(C)C)cc2O)nc(C)c1C(=O)N[C@@H](CCN)C(=O)N(C)[C@@H]1C(=O)N[C@@H](C)C(=O)N[C@H](C(=O)NCC#N)Cc2ccc(OCCN)c(c2)-c2cc1ccc2OCCN` (racemic) [Compound 298, rac-(8S,11S,14S)-3,18-bis(2-aminoethoxy)-N-(cyanomethyl)-11-methyl-14-[methyl-[rac-(2S)-4-amino-2-[[2-(4-tert-butyl-2-hydroxy-phenyl)-4,6-dimethyl-pyrimidine-5-carbonyl]amino]butanoyl]amino]-10,13-dioxo-9,12-diazatricyclo[13.3.1.12,6]icosa-1(18),2(20),3,5,15(19),16-hexaene-8-carboxamide], the MIC in assay [1] is 0.016 µM; in assay [2] it was 0.13 µM.
As for `Cc1nc(-c2ccc(C3CC3)cc2)nc(C)c1C(=O)N[C@@H](CCN)C(=O)N(C)[C@@H]1C(=O)N[C@@H](C)C(=O)N[C@H](C(=O)NCC#N)Cc2ccc(OCCN)c(c2)-c2cc1ccc2OCCN` (racemic) [Compound 300, rac-(8S,11S,14S)-3,18-bis(2-aminoethoxy)-N-(cyanomethyl)-11-methyl-14-[methyl-[rac-(2S)-4-amino-2-[[2-(4-cyclopropylphenyl)-4,6-dimethyl-pyrimidine-5-carbonyl]amino]butanoyl]amino]-10,13-dioxo-9,12-diazatricyclo[13.3.1.12,6]icosa-1(18),2(20),3,5,15(19),16-hexaene-8-carboxamide], the minimum inhibitory concentration (MIC) in assay [1] is 0.031 µM; in assay [2] it was 0.25 µM.
For `Cc1nc(-c2ccc(C3CCC3)cc2)nc(C)c1C(=O)N[C@@H](CCN)C(=O)N(C)[C@@H]1C(=O)N[C@@H](C)C(=O)N[C@H](C(=O)NCC#N)Cc2ccc(OCCN)c(c2)-c2cc1ccc2OCCN` (racemic) [Compound 301, rac-(8S,11S,14S)-3,18-bis(2-aminoethoxy)-N-(cyanomethyl)-11-methyl-14-[methyl-[rac-(2S)-4-amino-2-[[2-(4-cyclobutylphenyl)-4,6-dimethyl-pyrimidine-5-carbonyl]amino]butanoyl]amino]-10,13-dioxo-9,12-diazatricyclo[13.3.1.12,6]icosa-1(18),2(20),3,5,15(19),16-hexaene-8-carboxamide], the MIC in assay [1] was found to be 0.016 µM; in assay [2], 0.094 µM.
In the case of `Cc1nc(C#CC(C)(C)C)nc(C)c1C(=O)N[C@@H](CCN)C(=O)N(C)[C@@H]1C(=O)N[C@@H](C)C(=O)N[C@H](C(=O)NCC#N)Cc2ccc(OCCN)c(c2)-c2cc1ccc2OCCN` (racemic) [Compound 306, rac-(8S,11S,14S)-3,18-bis(2-aminoethoxy)-N-(cyanomethyl)-11-methyl-14-[methyl-[rac-(2S)-4-amino-2-[[2-(3,3-dimethylbut-1-ynyl)-4,6-dimethyl-pyrimidine-5-carbonyl]amino]butanoyl]amino]-10,13-dioxo-9,12-diazatricyclo[13.3.1.12,6]icosa-1(18),2(20),3,5,15(19),16-hexaene-8-carboxamide], the MIC is 0.84 µM in assay [1] and 14 µM in assay [2].
Take `CCc1ccc(C#Cc2nc(C)c(C(=O)N[C@@H](CCN)C(=O)N(C)[C@@H]3C(=O)N[C@@H](C)C(=O)N[C@H](C(=O)NCC#N)Cc4ccc(OCCN)c(c4)-c4cc3ccc4OCCN)c(C)n2)cc1` (racemic) [Compound 307, rac-(8S,11S,14S)-3,18-bis(2-aminoethoxy)-N-(cyanomethyl)-11-methyl-14-[methyl-[rac-(2S)-4-amino-2-[[2-[2-(4-ethylphenyl)ethynyl]-4,6-dimethyl-pyrimidine-5-carbonyl]amino]butanoyl]amino]-10,13-dioxo-9,12-diazatricyclo[13.3.1.12,6]icosa-1(18),2(20),3,5,15(19),16-hexaene-8-carboxamide]: the results for the MIC in assay [1] and in assay [2] were 0.033 µM and 0.2 µM, respectively.
On to `CCCCc1ccc(C#Cc2nc(C)c(C(=O)N[C@@H](CCN)C(=O)N(C)[C@@H]3C(=O)N[C@@H](C)C(=O)N[C@H](C(=O)NCC#N)Cc4ccc(OCCN)c(c4)-c4cc3ccc4OCCN)c(C)n2)cc1` (racemic) [Compound 308, rac-(8S,11S,14S)-3,18-bis(2-aminoethoxy)-N-(cyanomethyl)-11-methyl-14-[methyl-[rac-(2S)-4-amino-2-[[2-[2-(4-butylphenyl)ethynyl]-4,6-dimethyl-pyrimidine-5-carbonyl]amino]butanoyl]amino]-10,13-dioxo-9,12-diazatricyclo[13.3.1.12,6]icosa-1(18),2(20),3,5,15(19),16-hexaene-8-carboxamide], for which the MIC in assay [1] was determined as 0.012 µM; in assay [2] it was 0.096 µM.
On to `Cc1nc(C#Cc2ccccc2)nc(C)c1C(=O)N[C@@H](CCN)C(=O)N(C)[C@@H]1C(=O)N[C@@H](C)C(=O)N[C@H](C(=O)NCC#N)Cc2ccc(OCCN)c(c2)-c2cc1ccc2OCCN` (racemic) [Compound 309, rac-(8S,11S,14S)-3,18-bis(2-aminoethoxy)-N-(cyanomethyl)-11-methyl-14-[methyl-[rac-(2S)-4-amino-2-[[4,6-dimethyl-2-(2-phenylethynyl)pyrimidine-5-carbonyl]amino]butanoyl]amino]-10,13-dioxo-9,12-diazatricyclo[13.3.1.12,6]icosa-1(18),2(20),3,5,15(19),16-hexaene-8-carboxamide], for which the MIC in assay [1] was found to be 0.27 µM; in assay [2], 1.1 µM.
For `Cc1nc(C#Cc2ccc(C(C)(C)C)cc2)nc(C)c1C(=O)N[C@@H](CCN)C(=O)N(C)[C@@H]1C(=O)N[C@@H](C)C(=O)N[C@H](C(=O)NCC#N)Cc2ccc(OCCN)c(c2)-c2cc1ccc2OCCN` (racemic) [Compound 311, rac-(8S,11S,14S)-3,18-bis(2-aminoethoxy)-N-(cyanomethyl)-11-methyl-14-[methyl-[rac-(2S)-4-amino-2-[[2-[2-(4-tert-butylphenyl)ethynyl]-4,6-dimethyl-pyrimidine-5-carbonyl]amino]butanoyl]amino]-10,13-dioxo-9,12-diazatricyclo[13.3.1.12,6]icosa-1(18),2(20),3,5,15(19),16-hexaene-8-carboxamide], the results for the MIC in assay [1] and in assay [2] were 1 µM and 8.2 µM, respectively.
Consider `CC(C)=Cc1ccc(C#Cc2nc(C)c(C(=O)N[C@@H](CCN)C(=O)N(C)[C@@H]3C(=O)N[C@@H](C)C(=O)N[C@H](C(=O)NCC#N)Cc4ccc(OCCN)c(c4)-c4cc3ccc4OCCN)c(C)n2)cc1` (racemic) [Compound 313, rac-(8S,11S,14S)-3,18-bis(2-aminoethoxy)-N-(cyanomethyl)-11-methyl-14-[methyl-[rac-(2S)-4-amino-2-[[4,6-dimethyl-2-[2-[4-(2-methylprop-1-enyl)phenyl]ethynyl]pyrimidine-5-carbonyl]amino]butanoyl]amino]-10,13-dioxo-9,12-diazatricyclo[13.3.1.12,6]icosa-1(18),2(20),3,5,15(19),16-hexaene-8-carboxamide], for which the MIC was found to be 0.016 µM in assay [1] and 0.13 µM in assay [2].
Consider `Cc1nc(N2CCC(C(C)(C)C)CC2)nc(C)c1C(=O)N[C@@H](CCN)C(=O)N(C)[C@@H]1C(=O)N[C@@H](C)C(=O)N[C@H](C(=O)NCC#N)Cc2ccc(OCCN)c(c2)-c2cc1ccc2OCCN` (racemic) [Compound 315, rac-(8S,11S,14S)-3,18-bis(2-aminoethoxy)-N-(cyanomethyl)-11-methyl-14-[methyl-[rac-(2S)-4-amino-2-[[2-(4-tert-butyl-1-piperidyl)-4,6-dimethyl-pyrimidine-5-carbonyl]amino]butanoyl]amino]-10,13-dioxo-9,12-diazatricyclo[13.3.1.12,6]icosa-1(18),2(20),3,5,15(19),16-hexaene-8-carboxamide], for which the MIC came to 0.016 µM in assay [1] and 0.25 µM in assay [2].

The term MIC denotes the lowest concentration that inhibits growth of the organism.
